Laboratory results reported in PubChem BioAssay (NCI).
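Values below derive from 48-hour exposures of cells grown in 96-well plates, with endpoints linearly interpolated between the two concentrations bracketing the appropriate inhibition level. At the GI50, growth is halved. TGI: concentration producing complete growth inhibition.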

Key:
Test in all cases: inhibition of tumour cell growth, NCI panel, 48 h; in the data active = GI50 below about 0.43 µM; inactive = the rest
786-0 renal = test system: 786-0 renal
A549 NSCLC = test system: A549 NSCLC
ACHN renal = test system: ACHN renal
BT-549 breast = test system: BT-549 breast
CCRF-CEM leukemia = test system: CCRF-CEM leukemia
COLO 205 colon = test system: COLO 205 colon
DU-145 prostate = test system: DU-145 prostate
HCC-2998 colon = test system: HCC-2998 colon
HCT-116 colon = test system: HCT-116 colon
HL-60(TB) leukemia = test system: HL-60(TB) leukemia
HOP-62 NSCLC = test system: HOP-62 NSCLC
HOP-92 NSCLC = test system: HOP-92 NSCLC
HS 578T breast = test system: HS 578T breast
HT29 colon = test system: HT29 colon
IGROV1 ovarian = test system: IGROV1 ovarian
K-562 leukemia = test system: K-562 leukemia
LOX IMVI melanoma = test system: LOX IMVI melanoma
M14 melanoma = test system: M14 melanoma
MALME-3M melanoma = test system: MALME-3M melanoma
MDA-MB-231 breast = test system: MDA-MB-231 breast
MDA-MB-435 = test system: MDA-MB-435
MOLT-4 leukemia = test system: MOLT-4 leukemia
NCI-H226 lung = test system: NCI-H226 lung
NCI-H23 lung = test system: NCI-H23 lung
NCI/ADR-RES ovarian = test system: NCI/ADR-RES ovarian
OVCAR-3 ovarian = test system: OVCAR-3 ovarian
OVCAR-4 ovarian = test system: OVCAR-4 ovarian
OVCAR-5 ovarian = test system: OVCAR-5 ovarian
OVCAR-8 ovarian = test system: OVCAR-8 ovarian
RXF 393 renal = test system: RXF 393 renal
SF-268 CNS = test system: SF-268 CNS
SF-295 CNS = test system: SF-295 CNS
SF-539 CNS = test system: SF-539 CNS
SK-MEL-2 melanoma = test system: SK-MEL-2 melanoma
SK-MEL-28 melanoma = test system: SK-MEL-28 melanoma
SK-MEL-5 melanoma = test system: SK-MEL-5 melanoma
SK-OV-3 ovarian = test system: SK-OV-3 ovarian
SN12C renal = test system: SN12C renal
SNB-19 CNS = test system: SNB-19 CNS
SNB-75 CNS = test system: SNB-75 CNS
SR leukemia = test system: SR leukemia
SW-620 colon = test system: SW-620 colon
TK-10 renal = test system: TK-10 renal
U251 CNS = test system: U251 CNS
UACC-257 melanoma = test system: UACC-257 melanoma
UACC-62 melanoma = test system: UACC-62 melanoma

O=C(Nc1ccc(OCc2nnc(-c3ccc(Cl)cc3)o2)c(F)c1)c1ccc(Cl)c(C(F)(F)F)c1
> 50 µM: TGI (786-0 renal) | TGI (A549 NSCLC) | TGI (ACHN renal) | TGI (BT-549 breast) | TGI (CCRF-CEM leukemia) | TGI (COLO 205 colon) | TGI (DU-145 prostate) | TGI (HCC-2998 colon) | TGI (HCT-116 colon) | TGI (HL-60(TB) leukemia) | TGI (HOP-62 NSCLC) | TGI (HOP-92 NSCLC) | TGI (HS 578T breast) | TGI (HT29 colon) | TGI (IGROV1 ovarian) | TGI (K-562 leukemia) | TGI (LOX IMVI melanoma) | TGI (M14 melanoma) | TGI (MALME-3M melanoma) | TGI (MDA-MB-231 breast) | TGI (MDA-MB-435) | TGI (MOLT-4 leukemia) | TGI (NCI-H226 lung) | TGI (NCI-H23 lung) | TGI (NCI/ADR-RES ovarian) | TGI (OVCAR-3 ovarian) | TGI (OVCAR-4 ovarian) | TGI (OVCAR-5 ovarian) | TGI (OVCAR-8 ovarian) | TGI (RXF 393 renal) | TGI (SF-268 CNS) | TGI (SF-295 CNS) | TGI (SF-539 CNS) | TGI (SK-MEL-2 melanoma) | TGI (SK-MEL-28 melanoma) | TGI (SK-MEL-5 melanoma) | TGI (SK-OV-3 ovarian) | TGI (SN12C renal) | TGI (SNB-19 CNS) | TGI (SNB-75 CNS) | TGI (SR leukemia) | TGI (SW-620 colon) | TGI (TK-10 renal) | TGI (U251 CNS) | TGI (UACC-257 melanoma) | TGI (UACC-62 melanoma)
inactive: GI50 (786-0 renal) > 50 µM | GI50 (A549 NSCLC) > 50 µM | GI50 (ACHN renal) > 50 µM | GI50 (BT-549 breast) > 50 µM | GI50 (CCRF-CEM leukemia) > 50 µM | GI50 (COLO 205 colon) > 50 µM | GI50 (DU-145 prostate) > 50 µM | GI50 (HCC-2998 colon) > 50 µM | GI50 (HCT-116 colon) > 50 µM | GI50 (HL-60(TB) leukemia) > 50 µM | GI50 (HOP-62 NSCLC) > 50 µM | GI50 (HOP-92 NSCLC) > 50 µM | GI50 (HS 578T breast) > 50 µM | GI50 (HT29 colon) > 50 µM | GI50 (IGROV1 ovarian) > 50 µM | GI50 (K-562 leukemia) > 50 µM | GI50 (LOX IMVI melanoma) > 50 µM | GI50 (M14 melanoma) > 50 µM | GI50 (MALME-3M melanoma) > 50 µM | GI50 (MDA-MB-231 breast) > 50 µM | GI50 (MDA-MB-435) > 50 µM | GI50 (MOLT-4 leukemia) > 50 µM | GI50 (NCI-H226 lung) > 50 µM | GI50 (NCI-H23 lung) > 50 µM | GI50 (NCI/ADR-RES ovarian) > 50 µM | GI50 (OVCAR-3 ovarian) > 50 µM | GI50 (OVCAR-4 ovarian) > 50 µM | GI50 (OVCAR-5 ovarian) > 50 µM | GI50 (OVCAR-8 ovarian) > 50 µM | GI50 (RXF 393 renal) > 50 µM | GI50 (SF-268 CNS) > 50 µM | GI50 (SF-295 CNS) > 50 µM | GI50 (SF-539 CNS) > 50 µM | GI50 (SK-MEL-2 melanoma) > 50 µM | GI50 (SK-MEL-28 melanoma) > 50 µM | GI50 (SK-MEL-5 melanoma) > 50 µM | GI50 (SK-OV-3 ovarian) > 50 µM | GI50 (SN12C renal) > 50 µM | GI50 (SNB-19 CNS) > 50 µM | GI50 (SNB-75 CNS) > 50 µM | GI50 (SR leukemia) > 50 µM | GI50 (SW-620 colon) > 50 µM | GI50 (TK-10 renal) > 50 µM | GI50 (U251 CNS) > 50 µM | GI50 (UACC-257 melanoma) > 50 µM | GI50 (UACC-62 melanoma) > 50 µM
